In patent publication US8846699B2, “Quinazoline derivatives as a multiplex inhibitor and method for the preparation thereof” (Hanmi Pharm. Co., Ltd., priority 2005, dated 2014):

Tests used:
[1] = tested on: Human Umbilical Vein Endothelial Cell (HUVEC); assay: Inhibitory effect on growth of human umbilical vein endothelial cell (HUVEC), MTS; format: cell-based; details: Homo sapiens, 96 h, 10 ng/ml VEGF, absorbance 490 nm
VEGFR2 (KDR) = VEGFR2 (KDR) (Homo sapiens (Human), UniProt P35968); assay: VEGFR2 (KDR) enzyme assay, fluorescence polarization; format: biochemical; details: 5 μM ATP, poly(Glu, Tyr) substrate
Sequence of VEGFR2 (KDR) (P35968 20-1356): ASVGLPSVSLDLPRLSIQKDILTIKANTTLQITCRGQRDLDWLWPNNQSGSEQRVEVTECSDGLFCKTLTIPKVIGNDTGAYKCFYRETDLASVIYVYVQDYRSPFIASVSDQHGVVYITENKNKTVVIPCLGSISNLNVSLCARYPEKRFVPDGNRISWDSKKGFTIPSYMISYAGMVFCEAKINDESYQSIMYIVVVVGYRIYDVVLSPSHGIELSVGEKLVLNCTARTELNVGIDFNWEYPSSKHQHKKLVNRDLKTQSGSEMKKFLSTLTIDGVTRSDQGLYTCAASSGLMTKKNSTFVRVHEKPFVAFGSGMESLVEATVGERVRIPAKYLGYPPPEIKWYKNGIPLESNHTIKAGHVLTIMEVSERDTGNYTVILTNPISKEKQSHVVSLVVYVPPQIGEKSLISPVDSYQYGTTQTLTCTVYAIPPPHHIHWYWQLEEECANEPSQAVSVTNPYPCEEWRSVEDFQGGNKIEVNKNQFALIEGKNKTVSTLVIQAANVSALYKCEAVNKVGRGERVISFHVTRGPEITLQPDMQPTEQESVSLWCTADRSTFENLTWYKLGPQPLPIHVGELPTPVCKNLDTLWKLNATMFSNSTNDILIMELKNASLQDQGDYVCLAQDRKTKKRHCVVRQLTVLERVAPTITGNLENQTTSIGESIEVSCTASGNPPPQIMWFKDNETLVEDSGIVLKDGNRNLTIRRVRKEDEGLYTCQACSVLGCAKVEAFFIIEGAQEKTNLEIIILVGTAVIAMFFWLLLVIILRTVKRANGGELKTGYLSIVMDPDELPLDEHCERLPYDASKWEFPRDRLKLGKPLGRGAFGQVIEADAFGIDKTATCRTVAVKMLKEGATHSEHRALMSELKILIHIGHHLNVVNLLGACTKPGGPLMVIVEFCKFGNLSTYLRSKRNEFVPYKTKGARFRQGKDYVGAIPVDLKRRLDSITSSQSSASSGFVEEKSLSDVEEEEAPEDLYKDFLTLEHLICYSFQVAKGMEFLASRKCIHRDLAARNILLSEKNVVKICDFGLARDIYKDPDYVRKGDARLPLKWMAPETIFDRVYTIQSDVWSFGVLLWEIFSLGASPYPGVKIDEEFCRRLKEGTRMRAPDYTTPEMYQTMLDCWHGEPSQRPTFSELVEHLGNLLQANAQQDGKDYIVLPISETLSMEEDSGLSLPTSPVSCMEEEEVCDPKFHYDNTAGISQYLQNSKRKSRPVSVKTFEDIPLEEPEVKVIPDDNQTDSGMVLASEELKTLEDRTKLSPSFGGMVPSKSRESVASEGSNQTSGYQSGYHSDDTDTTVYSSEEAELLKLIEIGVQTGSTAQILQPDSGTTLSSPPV
How it was run: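 Autophosphorylation read by fluorescence polarization: VEGFR2 (Proquinase) at 200 ng/10 μl with 5 μM ATP and 10 ng/ml poly(Glu,Tyr) 4:1, in 20 mM HEPES pH 7.4, 5 mM MgCl2, 2 mM MnCl2, 50 μM Na3VO4. Reaction 1 h at room temperature, EDTA stop, then anti-phosphotyrosine antibody/tracer for 30 min in the dark.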

EGFR1 (HER-1) = EGFR1 (HER-1) (Homo sapiens (Human), UniProt P00533); assay: EGFR1 (HER-1) enzyme assay, fluorescence polarization; format: biochemical; details: 100 μM ATP, poly(Glu, Tyr) substrate
Sequence of EGFR1 (HER-1) (P00533 25-1210): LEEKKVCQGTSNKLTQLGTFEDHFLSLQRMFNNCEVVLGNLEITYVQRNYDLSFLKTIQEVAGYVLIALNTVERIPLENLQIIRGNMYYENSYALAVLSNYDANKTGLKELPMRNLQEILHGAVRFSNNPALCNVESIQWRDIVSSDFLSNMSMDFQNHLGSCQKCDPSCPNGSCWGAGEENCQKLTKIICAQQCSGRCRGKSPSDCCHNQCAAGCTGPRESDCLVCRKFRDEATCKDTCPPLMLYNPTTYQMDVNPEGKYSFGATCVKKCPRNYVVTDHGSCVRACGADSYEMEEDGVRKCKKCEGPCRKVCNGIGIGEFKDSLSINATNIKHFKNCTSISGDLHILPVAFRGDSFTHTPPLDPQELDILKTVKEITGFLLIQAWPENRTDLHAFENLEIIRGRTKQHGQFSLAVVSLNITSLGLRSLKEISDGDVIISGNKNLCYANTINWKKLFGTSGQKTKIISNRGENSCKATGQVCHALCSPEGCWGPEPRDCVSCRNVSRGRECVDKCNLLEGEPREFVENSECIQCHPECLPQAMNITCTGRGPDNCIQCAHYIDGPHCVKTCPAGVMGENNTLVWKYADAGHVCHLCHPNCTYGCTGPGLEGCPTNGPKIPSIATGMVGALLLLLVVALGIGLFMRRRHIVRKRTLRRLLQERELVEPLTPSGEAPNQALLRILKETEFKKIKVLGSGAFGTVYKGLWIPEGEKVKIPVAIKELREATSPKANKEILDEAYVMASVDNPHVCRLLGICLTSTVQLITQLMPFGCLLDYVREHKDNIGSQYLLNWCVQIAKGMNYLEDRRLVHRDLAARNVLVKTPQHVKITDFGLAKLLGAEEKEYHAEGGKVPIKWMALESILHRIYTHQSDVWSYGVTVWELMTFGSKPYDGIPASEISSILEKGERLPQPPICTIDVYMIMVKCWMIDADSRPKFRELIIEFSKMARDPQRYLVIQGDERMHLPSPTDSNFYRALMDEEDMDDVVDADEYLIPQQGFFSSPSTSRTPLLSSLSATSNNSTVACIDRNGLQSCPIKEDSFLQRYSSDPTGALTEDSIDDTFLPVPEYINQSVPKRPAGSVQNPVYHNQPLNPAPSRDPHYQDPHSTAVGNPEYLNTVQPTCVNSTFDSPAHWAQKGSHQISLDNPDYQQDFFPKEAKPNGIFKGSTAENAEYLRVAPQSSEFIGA

[2] = tested on: skin cancer cell line, A431; assay: Inhibitory effect on growth of cancer cell line A431, SRB; format: cell-based; details: Homo sapiens, A-431, 72 h, overexpressed EGFR1 (HER-1)
How it was run: (§1)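 Cells were cultured in DMEM with 10% FBS. Compounds were applied at 10 μM with 10-fold serial dilution to 10^−4, DMSO <1%, for 72 h at 37 °C. Cells were then TCA-fixed and stained with 0.4% SRB, and absorbance was read at 570 nm after solubilisation in 10 mM Tris base.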

[3] = tested on: breast cancer cell line, SK-Br3; assay: Inhibitory effect on growth of cancer cell line SK-Br3, SRB; format: cell-based; details: Homo sapiens, SK-BR-3, 72 h, overexpressed EGFR2 (HER-2)
How it was run: as §1

[4] = tested on: colon and rectal cancer cell line, SW-620; assay: Inhibitory effect on growth of cancer cell line SW-620, SRB; format: cell-based; details: Homo sapiens, 72 h, not having overexpressed EGFR and EGFR2
How it was run: as §1

Row | IC50 (VEGFR2 (KDR)) [nM] | IC50 (EGFR1 (HER-1)) [nM] | IC50 [2] [nM] | IC50 [3] [nM] | IC50 [4] [nM] | Compound | IC50 [1] [nM]
1 | 784 | 9 | 11 | 42 | 2430 | C=CC(=O)Nc1cc2c(Nc3cc(Cl)c(Br)cc3F)ncnc2cc1OCCNC(=O)CN(C)C [Example 135, N-{4-(4-bromo-5-chloro-2-fluoro-phenylamino)-7-[2-(2-dimethylamino-acetylamino)-ethoxy]-quinazolin-6-yl}-acrylamide] | 1310
2 | 96 | 2 | 15 | 137 | 8070 | C=CC(=O)Nc1cc2c(Nc3ccc(Br)cc3F)ncnc2cc1OCCNC(C)=O [Example 18, N-[7-(2-acetylamino-ethoxy)-4-(4-bromo-2-fluoro-phenylamino)-quinazolin-6-yl]-acrylamide] | 52
3 | 106 | 14 | 15 | 45 | 10000 | C=CC(=O)Nc1cc2c(Nc3ccc(Br)c(Cl)c3F)ncnc2cc1OCCNC(=O)CC [Example 142, N-[4-(4-bromo-3-chloro-2-fluoro-phenylamino)-7-(2-propionylamino-ethoxy)-quinazolin-6-yl]-acrylamide] | 132
4 | 134 | 35 | 46 | 53 | 7860 | C=CC(=O)Nc1cc2c(Nc3ccc(Br)c(Cl)c3F)ncnc2cc1OCCNC(=O)N1CCOCC1 [Example 41, morpholine-4-carboxylic acid {2-[6-acryloylamino-4-(4-bromo-3-chloro-2-fluoro-phenylamino)-quinazolin-7-yloxy]-ethyl}-amide] | 221
5 | 325 | 32 | 37 | 234 | 10000 | C=CC(=O)Nc1cc2c(Nc3ccc(Br)cc3F)ncnc2cc1OCCNC(=O)CO [Example 45, N-{4-(4-bromo-2-fluoro-phenylamino)-7-[2-(2-hydroxy-acetylamino)-ethoxy]-quinazolin-6-yl}-acrylamide] | 350

The remaining lines, values behind:

Row | Compound | IC50 (VEGFR2 (KDR)) [nM] | IC50 (EGFR1 (HER-1)) [nM] | IC50 [2] [nM] | IC50 [3] [nM] | IC50 [4] [nM] | IC50 [1] [nM]
6 | C=CC(=O)Nc1cc2c(Nc3ccc(Br)cc3F)ncnc2cc1OCC1CCN(C(=O)NCC)CC1 [Example 171, 4-[6-acryloylamino-4-(4-bromo-2-fluoro-phenylamino)-quinazolin-7-yloxymethyl]-piperidine-1-carboxylic acid ethylamide] | 136 | 20 | 25 | 147 | 10000 | 150
7 | C=CC(=O)Nc1cc2c(Nc3ccc(Br)cc3F)ncnc2cc1OC(C)CNC(C)=O (stereo not drawn) [Example 80, N-[7-(2-acetylamino-1-methyl-ethoxy)-4-(4-bromo-2-fluoro-phenylamino)-quinazolin-6-yl]-acrylamide] | 77 | 36 | 41 | 211 | 10000 | 109
8 | C=CNC(=O)NCCOc1cc2ncnc(Nc3ccc(Br)cc3F)c2cc1NC(=O)C=C [Example 39, N-{4-(4-bromo-2-fluoro-phenylamino)-7-[2-(3-vinyl-ureido)-ethoxy]-quinazolin-6-yl}-acrylamide] | 264 | 29 | 28 | 176 | 4520 | 325
9 | C=CC(=O)Nc1cc2c(Nc3ccc(Br)cc3F)ncnc2cc1OCCNC(=S)NCC [Example 36, N-{4-(4-bromo-2-fluoro-phenylamino)-7-[2-(3-ethyl-thioureido)-ethoxy]-quinazolin-6-yl}-acrylamide] | 354 | 91 | 89 | 43 | 722 | 389
10 | C=CC(=O)Nc1cc2c(Nc3ccc(Cl)cc3F)ncnc2cc1OCCNC(=O)CN(C)C [Example 116, N-{4-(4-chloro-2-fluoro-phenylamino)-7-[2-(2-dimethylamino-acetylamino)-ethoxy]-quinazolin-6-yl}-acrylamide] | 758 | 419 | 437 | 253 | 2960 | 951
11 | C=CC(=O)Nc1cc2c(Nc3c(F)cc(Br)cc3F)ncnc2cc1OCC1CCN(C(C)=O)CC1 [Example 8, N-[7-(1-acetyl-piperidin-4-ylmethoxy)-4-(4-bromo-2,6-difluoro-phenylamino)-quinazolin-6-yl]-acrylamide] | 148 | 13 | 20 | 149 | 2530 | 98
12 | C=CC(=O)Nc1cc2c(Nc3ccc(Br)cc3F)ncnc2cc1OCCCNC(=O)NCC [Example 16, N-{4-(4-bromo-2-fluoro-phenylamino)-7-[3-(3-ethyl-ureido)-propoxy]-quinazolin-6-yl}-acrylamide] | 208 | 11 | 18 | 228 | 10000 | 102
13 | C=CC(=O)Nc1cc2c(Nc3cc(OC)c(Cl)cc3F)ncnc2cc1OCCNC(C)=O [Example 129, N-[7-(2-acetylamino-ethoxy)-4-(4-chloro-2-fluoro-5-methoxy-phenylamino)-quinazolin-6-yl]-acrylamide] | 357 | 80 | 82 | 106 | 721 | 350
